{"source": "patent US12414948B2", "about": "“Methods” (INTRA-CELLULAR THERAPIES, INC., priority 2022, dated 2025)", "key": {"[1]": {"tested_on": "hippocampal microglia mRNA (Il1b, Il6, Tnfa, Nlrp3, Csf1r)", "test": "mRNA (RT-qPCR) in microglia enriched from rat hippocampus after LPS", "assay_type": "in vivo", "conditions": "rats, LPS 500 μg/kg; label LPS = LPS + vehicle, label Luma = Luma 3 mg/kg 16 h after LPS; microglia isolated +18 h; normalized to control (Dct)", "description": "Microglia Enrichment. […] Brain tissue is then processed through a dounce homogenizer followed by passages through 16- and 20-gauge needles. One mL of medium A is added to wash cell suspension, which is passed through a […] cell strainer and kept on ice. Next, 6 mL of 100% Percoll solution (9 parts of Percoll [GE Healthcare, Chicago, IL] and 1 part of HBSS) is added to obtain a 75% Percoll solution. The 75% Percoll cell suspension is then underlaid a layer of 25% Percoll solution containing Phenol red, which has a layer of PBS on top. The discontinuous Percoll density gradient is layered as followed: 75%, 25%, and 0% isotonic Percoll (PBS) to isolate hippocampal microglia. The gradients are then centrifuged at 4° C. for 25 minutes at 3,000 rpm in swinging buckets with minimal acceleration and deceleration and no brake. After centrifugation, the top layer containing myelin and debris (interface PBS/25% Percoll) is removed and the cellular layer at the 25%/75% interphase is collected and washed. Pilot experiments compare the gene expression of the different fractions and validated the presence of microglia in the interphase layer. The final pellet is resuspended in 350 μL of Buffer RLT from Qiagen microkit (Qiagen) to perform RNA extraction according to the manufacturer's instructions.\nExploratory experiments reveal that in microglia-enriched fractions from rat hippocampi, inflammation is returned closer to background levels at +26 hours after a dose of LPS. Thus, an earlier time point of +18 h after the LPS injection is selected to assess potential changes indicative of inflammation.\nHippocampi on both sides of the brain are collected 2 hours later (+18 hour from LPS injection) and microglia are rapidly isolated in an enriched fraction by Percoll gradient. RNA is extracted from the resulting, reconstituted cell pellet and RT-qPCR is performed. The results are shown in Table 7 as relative change in mRNA levels for each cytokine gene (Il1b, Il6, Tnfa, Nlrp3, Csf1r) normalized to the control group using the Dct method (n=8-12 per group): […]"}, "Sprague-Dawley rats": {"tested_on": "Sprague-Dawley rats", "test": "Open Field Test (OFT), locomotion", "assay_type": "in vivo, rat", "conditions": "for Open field track length: rats given LPS 1 mg/kg SC, label LPS = LPS + Vehicle, label Luma = Luma 1 mg/kg IP before and after LPS, text: open field track length in meters", "description": "Behavioral Evaluation. All behavioral tests are performed in the morning with adult male Sprague-Dawley rats (n=9-11 per group for the experiments with LPS, and n=13-14 per group for the naïve rats).\nOpen Field Test (OFT). Rats are placed in an open field box (76.5×76.5×40 cm^3) under dim lighting and locomotor activity over a 10 minute period is measured using ANY-Maze Software (Stoelting Co., Wood Dale, IL).\nLocomotion in an open field (track length in meters) is also measured as a control. As shown in the following table, locomotor activity is […] regardless of the group: […]"}}}
{"molecule": "CN1CCN2c3c(cccc31)[C@@H]1CN(CCCC(=O)c3ccc(F)cc3)CC[C@@H]12", "note": "[Luma, lumateperone]", "values": [{"measurement": "Hippocampal microglial cytokine mRNA expression IL-1b", "setting": "[1]", "result": 0.38}, {"measurement": "Hippocampal microglial cytokine mRNA expression IL-6", "setting": "[1]", "result": "−0.22"}, {"measurement": "Hippocampal microglial cytokine mRNA expression TNF-alpha", "setting": "[1]", "result": "−1.00"}, {"measurement": "Hippocampal microglial mRNA expression Csf1R", "setting": "[1]", "result": "−0.05"}, {"measurement": "Hippocampal microglial mRNA expression NLRP3", "setting": "[1]", "result": "−0.48"}, {"measurement": "OFT locomotion", "setting": "Sprague-Dawley rats; naïve rats, Luma 1 mg/kg IP on days 1 and 3, 10 minutes", "result": "32.8 ± 10.2", "unit": "m"}, {"measurement": "Open field track length", "setting": "Sprague-Dawley rats", "result": 12.27}]}
{"molecule": "lipopolysaccharide [LPS, reference compound]", "values": [{"measurement": "Hippocampal microglial cytokine mRNA expression IL-1b", "setting": "[1]", "result": 2.82}, {"measurement": "Hippocampal microglial cytokine mRNA expression IL-6", "setting": "[1]", "result": 0.89}, {"measurement": "Hippocampal microglial cytokine mRNA expression TNF-alpha", "setting": "[1]", "result": "−0.28"}, {"measurement": "Hippocampal microglial mRNA expression Csf1R", "setting": "[1]", "result": 0.50}, {"measurement": "Hippocampal microglial mRNA expression NLRP3", "setting": "[1]", "result": 0.71}, {"measurement": "Open field track length", "setting": "Sprague-Dawley rats", "result": 12.81}]}
